In ChEMBL document CHEMBL4507290 (2021):

Columns and labels:
[1] = molecular target: Serine/threonine-protein kinase PLK4 (Homo sapiens) (UniProt O00444); settings: Compound concentration 1000.0 nM
[2] = molecular target: Activin receptor type-2A (Homo sapiens) (UniProt P27037); settings: Compound concentration 1000.0 nM
[3] = molecular target: Ephrin type-B receptor 6 (Homo sapiens) (UniProt O15197); settings: Compound concentration 1000.0 nM
[4] = molecular target: Homeodomain-interacting protein kinase 4 (Homo sapiens) (UniProt Q8NE63); settings: Compound concentration 1000.0 nM
[5] = molecular target: Casein kinase I isoform gamma-2 (Homo sapiens) (UniProt P78368); settings: Compound concentration 1000.0 nM
[6] = molecular target: Casein kinase II subunit alpha (Homo sapiens) (UniProt P68400); settings: Compound concentration 1000.0 nM
[7] = molecular target: Serine/threonine-protein kinase SIK3 (Homo sapiens) (UniProt Q9Y2K2); settings: Compound concentration 1000.0 nM
Chain of Serine/threonine-protein kinase SIK3 (Homo sapiens) (Q9Y2K2 whole entry, looked up): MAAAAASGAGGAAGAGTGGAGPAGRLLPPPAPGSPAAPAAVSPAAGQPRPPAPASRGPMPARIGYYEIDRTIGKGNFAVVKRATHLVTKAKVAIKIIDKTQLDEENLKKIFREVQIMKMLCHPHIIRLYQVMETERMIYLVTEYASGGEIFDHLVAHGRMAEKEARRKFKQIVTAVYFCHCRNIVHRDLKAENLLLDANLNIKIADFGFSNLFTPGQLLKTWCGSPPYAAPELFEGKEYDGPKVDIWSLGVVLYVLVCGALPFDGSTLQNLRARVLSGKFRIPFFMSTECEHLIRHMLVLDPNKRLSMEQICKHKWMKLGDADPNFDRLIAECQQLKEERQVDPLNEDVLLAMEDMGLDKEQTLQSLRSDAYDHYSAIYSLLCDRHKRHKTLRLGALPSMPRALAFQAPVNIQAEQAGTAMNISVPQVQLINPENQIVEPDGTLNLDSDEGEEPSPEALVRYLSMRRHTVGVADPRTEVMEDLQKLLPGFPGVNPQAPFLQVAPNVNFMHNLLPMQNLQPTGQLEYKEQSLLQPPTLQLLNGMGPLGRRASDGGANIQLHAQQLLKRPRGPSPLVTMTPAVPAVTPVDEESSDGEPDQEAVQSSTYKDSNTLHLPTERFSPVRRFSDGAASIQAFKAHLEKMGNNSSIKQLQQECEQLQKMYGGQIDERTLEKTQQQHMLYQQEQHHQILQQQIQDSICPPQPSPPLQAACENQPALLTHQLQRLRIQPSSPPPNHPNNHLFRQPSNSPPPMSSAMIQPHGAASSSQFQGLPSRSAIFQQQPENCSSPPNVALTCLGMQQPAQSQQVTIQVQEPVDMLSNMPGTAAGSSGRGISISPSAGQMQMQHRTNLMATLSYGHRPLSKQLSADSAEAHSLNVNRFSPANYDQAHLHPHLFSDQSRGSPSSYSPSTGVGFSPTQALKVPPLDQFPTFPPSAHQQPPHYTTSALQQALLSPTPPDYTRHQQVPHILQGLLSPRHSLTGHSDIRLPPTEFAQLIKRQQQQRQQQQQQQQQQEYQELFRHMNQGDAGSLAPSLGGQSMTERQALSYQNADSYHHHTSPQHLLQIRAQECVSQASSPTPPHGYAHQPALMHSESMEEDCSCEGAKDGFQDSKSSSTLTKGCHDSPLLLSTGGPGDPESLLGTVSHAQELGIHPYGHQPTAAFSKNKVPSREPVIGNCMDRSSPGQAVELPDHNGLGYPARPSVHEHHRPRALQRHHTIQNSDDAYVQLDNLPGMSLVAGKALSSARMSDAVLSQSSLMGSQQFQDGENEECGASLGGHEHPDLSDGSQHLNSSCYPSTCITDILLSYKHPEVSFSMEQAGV

[8] = molecular target: Muscarinic acetylcholine receptor M2 (Homo sapiens) (UniProt P08172); settings: Compound concentration 10.0 uM
[9] = molecular target: Aurora kinase A (Homo sapiens) (UniProt O14965); settings: Compound concentration 1000.0 nM
[10] = molecular target: Dual specificity testis-specific protein kinase 1 (Homo sapiens) (UniProt Q15569); settings: Compound concentration 1000.0 nM
[11] = molecular target: Phosphorylase b kinase gamma catalytic chain, skeletal muscle/heart isoform (Homo sapiens) (UniProt Q16816); settings: Compound concentration 1000.0 nM
[12] = molecular target: Dual specificity mitogen-activated protein kinase kinase 4 (Homo sapiens) (UniProt P45985); settings: Compound concentration 1000.0 nM
Chain of Dual specificity mitogen-activated protein kinase kinase 4 (Homo sapiens) (P45985 whole entry): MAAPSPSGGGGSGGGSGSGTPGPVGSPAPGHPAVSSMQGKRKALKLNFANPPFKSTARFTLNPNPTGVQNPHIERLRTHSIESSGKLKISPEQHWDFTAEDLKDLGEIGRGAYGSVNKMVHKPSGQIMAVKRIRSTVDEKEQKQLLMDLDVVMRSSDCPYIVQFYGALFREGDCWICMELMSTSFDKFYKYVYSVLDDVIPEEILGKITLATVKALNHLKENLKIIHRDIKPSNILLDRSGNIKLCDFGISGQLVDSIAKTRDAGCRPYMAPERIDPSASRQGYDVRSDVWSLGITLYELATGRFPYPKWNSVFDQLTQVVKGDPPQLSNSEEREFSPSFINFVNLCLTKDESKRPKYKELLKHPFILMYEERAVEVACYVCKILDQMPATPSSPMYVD

[13] = molecular target: Myosin-IIIb (Homo sapiens) (UniProt Q8WXR4); settings: Compound concentration 1000.0 nM
[14] = molecular target: Cyclin-dependent kinase 4 (Homo sapiens) (UniProt P11802); settings: Compound concentration 1000.0 nM
[15] = molecular target: Mitogen-activated protein kinase 14 (Homo sapiens) (UniProt Q16539); settings: Compound concentration 1000.0 nM
[16] = molecular target: Cyclin-dependent kinase 3 (Homo sapiens) (UniProt Q00526); settings: Compound concentration 1000.0 nM
[17] = molecular target: cGMP-dependent protein kinase 2 (Homo sapiens) (UniProt Q13237); settings: Compound concentration 1000.0 nM
[18] = molecular target: Serine/threonine-protein kinase 38-like (Homo sapiens) (UniProt Q9Y2H1); settings: Compound concentration 1000.0 nM
[19] = system: Epidermal growth factor receptor (Homo sapiens), P00533 [L858R,T790M]; settings: Compound concentration 1000.0 nM
[20] = molecular target: Mitotic checkpoint serine/threonine-protein kinase BUB1 (Homo sapiens) (UniProt O43683); settings: Compound concentration 1000.0 nM
[21] = molecular target: Sodium-dependent noradrenaline transporter (Homo sapiens) (UniProt P23975); settings: Compound concentration 10.0 uM
[22] = system: Proto-oncogene tyrosine-protein kinase receptor Ret (Homo sapiens), P07949 [M918T]; settings: Compound concentration 1000.0 nM
[23] = molecular target: Mitogen-activated protein kinase 4 (Homo sapiens) (UniProt P31152); settings: Compound concentration 1000.0 nM
[24] = system: Receptor-type tyrosine-protein kinase FLT3 (Homo sapiens), P36888 [UNDEFINED MUTATION]; settings: Compound concentration 1000.0 nM
Chain of Receptor-type tyrosine-protein kinase FLT3 (Homo sapiens), P36888 [UNDEFINED MUTATION] (P36888 whole entry, looked up, change not shown): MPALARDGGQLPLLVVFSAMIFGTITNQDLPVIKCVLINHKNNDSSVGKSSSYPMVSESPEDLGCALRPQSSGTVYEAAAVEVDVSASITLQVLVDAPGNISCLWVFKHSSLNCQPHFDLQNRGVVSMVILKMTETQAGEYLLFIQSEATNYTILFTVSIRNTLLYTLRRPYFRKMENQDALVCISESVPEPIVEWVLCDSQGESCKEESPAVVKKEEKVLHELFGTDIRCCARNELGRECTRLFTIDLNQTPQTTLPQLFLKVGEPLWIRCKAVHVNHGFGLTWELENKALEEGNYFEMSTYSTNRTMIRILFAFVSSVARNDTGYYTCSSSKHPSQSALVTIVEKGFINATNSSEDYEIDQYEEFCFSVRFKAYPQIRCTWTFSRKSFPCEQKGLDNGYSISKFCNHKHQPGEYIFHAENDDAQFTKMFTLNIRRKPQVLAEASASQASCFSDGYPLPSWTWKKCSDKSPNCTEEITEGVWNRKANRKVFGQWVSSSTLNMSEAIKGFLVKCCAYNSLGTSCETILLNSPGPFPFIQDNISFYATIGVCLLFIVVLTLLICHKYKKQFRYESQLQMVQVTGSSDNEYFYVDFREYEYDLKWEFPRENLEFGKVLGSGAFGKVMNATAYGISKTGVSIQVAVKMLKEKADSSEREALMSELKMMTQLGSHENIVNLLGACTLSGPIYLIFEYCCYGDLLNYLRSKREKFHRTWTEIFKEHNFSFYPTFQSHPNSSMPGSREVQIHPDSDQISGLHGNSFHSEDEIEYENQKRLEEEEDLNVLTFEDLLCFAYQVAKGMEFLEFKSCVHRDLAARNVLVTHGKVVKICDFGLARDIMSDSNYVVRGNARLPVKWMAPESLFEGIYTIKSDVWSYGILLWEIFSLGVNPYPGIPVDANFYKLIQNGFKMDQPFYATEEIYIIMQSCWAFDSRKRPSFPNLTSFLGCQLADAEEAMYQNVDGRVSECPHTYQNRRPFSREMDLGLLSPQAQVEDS

[25] = molecular target: STE20-like serine/threonine-protein kinase (Homo sapiens) (UniProt Q9H2G2); settings: Compound concentration 1000.0 nM
[26] = molecular target: Casein kinase II subunit alpha' (Homo sapiens) (UniProt P19784); settings: Compound concentration 1000.0 nM
[27] = molecular target: Ephrin type-A receptor 8 (Homo sapiens) (UniProt P29322); settings: Compound concentration 1000.0 nM
[28] = molecular target: Dual specificity mitogen-activated protein kinase kinase 3 (Homo sapiens) (UniProt P46734); settings: Compound concentration 1000.0 nM
Chain of Dual specificity mitogen-activated protein kinase kinase 3 (Homo sapiens) (P46734 whole entry): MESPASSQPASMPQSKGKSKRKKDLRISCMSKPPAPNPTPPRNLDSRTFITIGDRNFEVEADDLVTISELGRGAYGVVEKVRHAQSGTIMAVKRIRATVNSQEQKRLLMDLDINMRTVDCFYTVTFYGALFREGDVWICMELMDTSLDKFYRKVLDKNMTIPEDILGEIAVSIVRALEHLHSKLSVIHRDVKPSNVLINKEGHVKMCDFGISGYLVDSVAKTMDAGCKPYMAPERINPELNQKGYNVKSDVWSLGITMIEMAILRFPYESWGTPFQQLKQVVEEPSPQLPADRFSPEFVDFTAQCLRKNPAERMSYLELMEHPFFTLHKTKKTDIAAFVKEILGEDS

[29] = molecular target: TRAF2 and NCK-interacting protein kinase (Homo sapiens) (UniProt Q9UKE5); settings: Compound concentration 1000.0 nM
[30] = molecular target: Tyrosine-protein kinase SYK (Homo sapiens) (UniProt P43405); settings: Compound concentration 1000.0 nM
[31] = molecular target: Aurora kinase B (Homo sapiens) (UniProt Q96GD4); settings: Compound concentration 1000.0 nM
[32] = molecular target: Mitogen-activated protein kinase 13 (Homo sapiens) (UniProt O15264); settings: Compound concentration 1000.0 nM
[33] = molecular target: Atypical kinase COQ8A, mitochondrial (Homo sapiens) (UniProt Q8NI60); settings: Compound concentration 1000.0 nM
Chain of Atypical kinase COQ8A, mitochondrial (Homo sapiens) (Q8NI60 163-647 limits assumed): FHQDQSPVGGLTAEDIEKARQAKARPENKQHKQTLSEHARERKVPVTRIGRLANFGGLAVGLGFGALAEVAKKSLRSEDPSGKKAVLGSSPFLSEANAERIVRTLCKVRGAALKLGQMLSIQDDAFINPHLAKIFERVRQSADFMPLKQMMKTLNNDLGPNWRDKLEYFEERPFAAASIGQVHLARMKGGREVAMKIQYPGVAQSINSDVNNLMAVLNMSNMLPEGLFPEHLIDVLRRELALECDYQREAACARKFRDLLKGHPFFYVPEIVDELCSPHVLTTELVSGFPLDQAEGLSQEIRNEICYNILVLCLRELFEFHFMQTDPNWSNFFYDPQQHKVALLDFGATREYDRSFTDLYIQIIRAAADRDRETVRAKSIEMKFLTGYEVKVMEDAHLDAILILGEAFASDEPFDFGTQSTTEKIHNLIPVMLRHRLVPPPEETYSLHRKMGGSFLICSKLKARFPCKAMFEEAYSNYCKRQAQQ

[34] = molecular target: Tyrosine-protein kinase Yes (Homo sapiens) (UniProt P07947); settings: Compound concentration 1000.0 nM
[35] = molecular target: Serine/threonine-protein kinase Nek1 (Homo sapiens) (UniProt Q96PY6); settings: Compound concentration 1000.0 nM
[36] = molecular target: 1-phosphatidylinositol 3-phosphate 5-kinase (Homo sapiens) (UniProt Q9Y2I7); settings: Compound concentration 1000.0 nM
[37] = molecular target: Vascular endothelial growth factor receptor 1 (Homo sapiens) (UniProt P17948); settings: Compound concentration 1000.0 nM
[38] = molecular target: D(3) dopamine receptor (Homo sapiens) (UniProt P35462); settings: Compound concentration 10.0 uM
Chain of D(3) dopamine receptor (Homo sapiens) (P35462 whole entry): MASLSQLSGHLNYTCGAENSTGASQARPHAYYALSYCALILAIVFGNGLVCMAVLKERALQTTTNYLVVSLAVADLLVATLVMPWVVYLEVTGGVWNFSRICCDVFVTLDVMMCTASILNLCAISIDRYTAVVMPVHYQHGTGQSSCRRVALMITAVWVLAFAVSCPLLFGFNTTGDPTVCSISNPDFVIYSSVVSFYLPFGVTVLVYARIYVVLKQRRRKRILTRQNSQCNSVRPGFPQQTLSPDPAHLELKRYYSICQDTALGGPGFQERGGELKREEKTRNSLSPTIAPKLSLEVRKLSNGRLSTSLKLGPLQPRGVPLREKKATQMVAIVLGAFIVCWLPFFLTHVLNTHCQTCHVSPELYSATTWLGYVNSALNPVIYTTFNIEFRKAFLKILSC

[39] = molecular target: Calcium/calmodulin-dependent protein kinase type II subunit delta (Homo sapiens) (UniProt Q13557); settings: Compound concentration 1000.0 nM
[40] = system: Phosphatidylinositol 4,5-bisphosphate 3-kinase catalytic subunit alpha isoform (Homo sapiens), P42336 [E542K]; settings: Compound concentration 1000.0 nM
Chain of Phosphatidylinositol 4,5-bisphosphate 3-kinase catalytic subunit alpha isoform (Homo sapiens), P42336 [E542K] (P42336 whole entry E542K, canonical isoform): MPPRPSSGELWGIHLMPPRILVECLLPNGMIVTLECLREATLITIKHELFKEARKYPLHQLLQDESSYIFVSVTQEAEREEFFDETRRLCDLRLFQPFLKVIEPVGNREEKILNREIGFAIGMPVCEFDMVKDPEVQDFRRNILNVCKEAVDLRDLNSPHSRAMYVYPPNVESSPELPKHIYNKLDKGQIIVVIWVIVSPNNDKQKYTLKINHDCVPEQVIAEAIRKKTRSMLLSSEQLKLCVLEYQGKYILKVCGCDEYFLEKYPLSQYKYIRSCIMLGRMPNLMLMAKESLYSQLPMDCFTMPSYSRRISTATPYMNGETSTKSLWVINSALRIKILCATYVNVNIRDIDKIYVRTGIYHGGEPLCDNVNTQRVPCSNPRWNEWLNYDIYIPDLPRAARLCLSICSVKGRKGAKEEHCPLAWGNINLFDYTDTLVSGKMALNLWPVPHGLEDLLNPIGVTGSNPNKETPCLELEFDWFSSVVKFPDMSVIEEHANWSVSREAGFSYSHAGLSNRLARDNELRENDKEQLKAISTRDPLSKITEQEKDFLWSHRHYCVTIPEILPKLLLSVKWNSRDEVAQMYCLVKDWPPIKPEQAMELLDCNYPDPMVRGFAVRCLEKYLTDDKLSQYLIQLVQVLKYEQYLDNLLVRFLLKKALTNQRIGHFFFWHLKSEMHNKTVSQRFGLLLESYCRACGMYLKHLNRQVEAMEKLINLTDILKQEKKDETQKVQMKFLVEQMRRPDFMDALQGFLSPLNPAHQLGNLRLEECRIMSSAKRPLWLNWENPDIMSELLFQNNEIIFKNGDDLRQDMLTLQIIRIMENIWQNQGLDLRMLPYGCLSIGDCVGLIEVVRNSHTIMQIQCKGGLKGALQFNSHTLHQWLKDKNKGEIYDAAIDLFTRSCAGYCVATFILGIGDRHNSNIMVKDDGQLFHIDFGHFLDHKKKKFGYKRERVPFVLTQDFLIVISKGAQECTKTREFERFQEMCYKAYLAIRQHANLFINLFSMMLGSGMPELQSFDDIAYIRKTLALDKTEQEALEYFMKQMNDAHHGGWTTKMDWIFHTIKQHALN

[41] = molecular target: Tyrosine-protein kinase JAK3 (Homo sapiens) (UniProt P52333); settings: Compound concentration 1000.0 nM
[42] = molecular target: Receptor-type tyrosine-protein kinase FLT3 (Homo sapiens) (UniProt P36888); settings: Compound concentration 1000.0 nM
[43] = molecular target: Tyrosine-protein kinase JAK1 (Homo sapiens) (UniProt P23458); settings: Compound concentration 1000.0 nM
[44] = molecular target: Serine/threonine-protein kinase Sgk2 (Homo sapiens) (UniProt Q9HBY8); settings: Compound concentration 1000.0 nM
[45] = molecular target: Calcium/calmodulin-dependent protein kinase type II subunit alpha (Homo sapiens) (UniProt Q9UQM7); settings: Compound concentration 1000.0 nM

CN([C@@H]1CCc2c(CC(=O)O)c3cc(S(C)(=O)=O)ccc3n2C1)S(=O)(=O)c1ccc(F)cc1
inactive: residual activity [1] 100% | residual activity [2] 100% | residual activity [3] 82% | residual activity [4] 100% | residual activity [5] 100% | residual activity [6] 91% | residual activity [7] 89% | inhibition [8] -9.24% | residual activity [9] 100% | residual activity [10] 73% | residual activity [11] 100% | residual activity [12] 75% | residual activity [13] 100% | residual activity [14] 91% | residual activity [15] 100% | residual activity [16] 100% | residual activity [17] 95% | residual activity [18] 88% | residual activity [19] 100% | residual activity [20] 86% | inhibition [21] 22.4% | residual activity [22] 100% | residual activity [23] 100% | residual activity [24] 82% | residual activity [25] 100% | residual activity [26] 100% | residual activity [27] 98% | residual activity [28] 88% | residual activity [29] 100% | residual activity [30] 100% | residual activity [31] 83% | residual activity [32] 68% | residual activity [33] 87% | residual activity [34] 88% | residual activity [35] 100% | residual activity [36] 97% | residual activity [37] 88% | inhibition [38] -5.72% | residual activity [39] 100% | residual activity [40] 88% | residual activity [41] 100% | residual activity [42] 100% | residual activity [43] 94% | residual activity [44] 100% | residual activity [45] 100%

CN([C@@H]1CCc2c(CC(=O)O)c3ccccc3n2C1)S(=O)(=O)c1ccc(F)cc1 [MK-7246]
inactive: residual activity [1] 100% | residual activity [2] 100% | residual activity [3] 83% | residual activity [4] 100% | residual activity [5] 100% | residual activity [6] 82% | residual activity [7] 98% | inhibition [8] -0.4% | residual activity [9] 100% | residual activity [10] 91% | residual activity [11] 100% | residual activity [12] 100% | residual activity [13] 100% | residual activity [14] 99% | residual activity [15] 100% | residual activity [16] 100% | residual activity [17] 100% | residual activity [18] 83% | residual activity [19] 100% | residual activity [20] 79% | inhibition [21] 23.8% | residual activity [22] 97% | residual activity [23] 100% | residual activity [24] 100% | residual activity [25] 100% | residual activity [26] 100% | residual activity [27] 100% | residual activity [28] 84% | residual activity [29] 79% | residual activity [30] 100% | residual activity [31] 91% | residual activity [32] 91% | residual activity [33] 100% | residual activity [34] 100% | residual activity [35] 100% | residual activity [36] 100% | residual activity [37] 100% | inhibition [38] -4.25% | residual activity [39] 100% | residual activity [40] 86% | residual activity [41] 98% | residual activity [42] 100% | residual activity [43] 83% | residual activity [44] 100% | residual activity [45] 91%
